These results are taken from patent publication US20140171417A1, “TRICYCLIC COMPOUNDS” (NOVARTIS AG, priority 2012, published 2014).

This assay deals with T1, CFTR (Homo sapiens, UniProt P13569).
T1 construct: expressed in transfected cells
T1 sequence (P13569 whole entry): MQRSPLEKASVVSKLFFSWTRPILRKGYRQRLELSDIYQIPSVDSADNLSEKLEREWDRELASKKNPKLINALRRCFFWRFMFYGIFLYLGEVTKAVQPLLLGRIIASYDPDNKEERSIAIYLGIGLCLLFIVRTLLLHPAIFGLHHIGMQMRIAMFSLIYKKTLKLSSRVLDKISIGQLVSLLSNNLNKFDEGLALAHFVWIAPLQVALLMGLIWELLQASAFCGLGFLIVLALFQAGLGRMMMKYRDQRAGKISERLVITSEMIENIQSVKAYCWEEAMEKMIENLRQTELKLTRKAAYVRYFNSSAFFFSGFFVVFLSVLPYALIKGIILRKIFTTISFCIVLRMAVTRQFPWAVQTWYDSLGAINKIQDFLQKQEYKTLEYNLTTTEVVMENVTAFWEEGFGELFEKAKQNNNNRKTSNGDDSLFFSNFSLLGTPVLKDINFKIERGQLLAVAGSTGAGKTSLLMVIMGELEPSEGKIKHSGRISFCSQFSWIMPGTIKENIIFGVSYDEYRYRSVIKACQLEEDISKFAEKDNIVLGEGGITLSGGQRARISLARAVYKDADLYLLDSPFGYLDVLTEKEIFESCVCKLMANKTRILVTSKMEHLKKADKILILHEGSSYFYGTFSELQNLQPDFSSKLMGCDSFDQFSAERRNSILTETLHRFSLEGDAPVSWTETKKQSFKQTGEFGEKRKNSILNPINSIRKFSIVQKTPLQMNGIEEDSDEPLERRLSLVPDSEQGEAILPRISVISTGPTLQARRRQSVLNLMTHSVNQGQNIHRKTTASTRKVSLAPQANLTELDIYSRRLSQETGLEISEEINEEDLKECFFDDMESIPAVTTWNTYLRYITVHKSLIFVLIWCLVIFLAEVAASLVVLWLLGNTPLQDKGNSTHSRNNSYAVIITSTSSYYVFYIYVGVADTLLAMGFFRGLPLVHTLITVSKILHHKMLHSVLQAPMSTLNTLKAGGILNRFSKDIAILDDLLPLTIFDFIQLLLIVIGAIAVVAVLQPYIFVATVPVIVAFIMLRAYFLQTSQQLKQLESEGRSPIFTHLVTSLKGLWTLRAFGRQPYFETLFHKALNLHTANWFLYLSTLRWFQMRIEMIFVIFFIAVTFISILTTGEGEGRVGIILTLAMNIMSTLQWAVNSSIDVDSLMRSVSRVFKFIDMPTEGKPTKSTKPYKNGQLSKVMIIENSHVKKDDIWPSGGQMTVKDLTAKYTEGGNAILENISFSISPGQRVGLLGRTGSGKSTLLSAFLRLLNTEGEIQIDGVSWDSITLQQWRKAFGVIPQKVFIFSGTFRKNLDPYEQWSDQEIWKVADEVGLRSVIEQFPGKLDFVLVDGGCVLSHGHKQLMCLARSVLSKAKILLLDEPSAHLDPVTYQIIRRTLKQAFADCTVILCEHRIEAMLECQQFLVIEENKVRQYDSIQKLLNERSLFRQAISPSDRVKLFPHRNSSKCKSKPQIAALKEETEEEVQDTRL
Description: IonWorks Quattro assay (CFTR Inhibitor Assay), whole-cell planar patch clamp. The format is cell-based. To be noted: inward current (−100 mV); CHO cells stably expressing WT-CFTR; CFTR activated by 10 μM forskolin; test compound incubated 10 min. The text has this: CFTR activity can be quantified by electrophysiology methods, using the whole-cell configuration of the patch clamp technique (Hamill O, Marty A, Neher E, Sakmann B and Sigworth F. ‘Improved patch-clamp techniques for high resolution current recording from cells and cell-free membrane patches.’ Pflugers Archive 1981 391: 85-100). This assay directly measures the currents associated with chloride flow through CFTR channels whilst either maintaining or adjusting the transmembrane voltage. This assay can use either single glass micropipettes or parallel planar arrays to measure CFTR activity from native or recombinant cell systems. Currents measured using parallel planar arrays can be quantified using an appropriately equipped instrument such as the IonWorks Quattro (Molecular Devices Corporation, Sunnyvale, Calif.). The Quattro system can measure CFTR currents from either a single cell per recording well (HT configuration) or alternatively from a population of 64 cells per well (Population Patch Clamp PPC) (Finkel A, Wittel A, Yang N, Handran S, Hughes J, Costantin J. ‘Population patch clamp improves data consistency and success rates in the measurement of ionic currents.’ J Biomol Screen. 2006 August; 11 (5):488-96).
Chinese hamster ovary (CHO) cells stably expressing WT-CFTR channels were used for the IonWorks Quattro experiments. Cells were maintained at 37° C. in 5% v/v CO2 at 100% humidity in MEM alpha medium supplemented with 10% (v/v) FCS, 100 U/mL Penicillin/Streptomycin, and 100 μg/L methotrexate. For experiments, cells were grown in 225 cm^2 tissue culture flasks until almost confluent. Cells were removed from the flask using trypsin-EDTA and resuspended in extracellular recording solution for immediate experimentation.
Cells, at a density of 1.5-2 million per mL, were placed on the Quattro system, added to the planar patch plate and seals allowed to establish for 5-10 mins. After assessing seal resistances (typically >50 MΩ), whole-cell access was obtained by perforation with 100 μg/mL amphotericin B. Baseline currents were measured by a pre-compound scan obtained by application of a voltage ramp from −100 to +100 mV. CFTR was activated by the addition of 10 μM forskolin to each of the 384 wells of the patch plate. After 5 min incubation the post-compound 1 currents were measured, again by application of a voltage ramp from −100 to +100 mV. Test compounds, diluted from 10 mM stocks in DMSO in extracellular solution were then added to the patch plate and were incubated for a further 10 min. The post-compound 2 currents were measured by the application of the same voltage ramp from −100 to +100 mV. The inhibition of CFTR was determined from the difference in current between the forskolin addition (post-compound 1) and the test compound (post-compound 2). This was determined at both −100 mV and +100 mV which represents the inward and outward current respectively.
Extracellular solution (ECS): 145 mM NaCl, 4 mM CsCl, 5 mM D-glucose, 10 mM TES, 1 mM CaCl2, 1 mM MgCl2, pH 7.4 NaOH
Intracellular solution (ICS): 113 mM L-Aspartic acid, 113 mM CsOH, 27 mM CsCl, 1 mM NaCl, 1 mM MgCl2, 1 mM EGTA, 10 mM TES. pH 7.2 with CsOH. Filter sterilized before use.
For orientation: Patch clamp records ionic current or voltage across a cell membrane.
The IC50 is the concentration at which inhibition is half-maximal. The low end stands for higher potency, the high end for lower potency. `Cc1ccc(C2SCCn3c(-c4ccccc4)c4c(=O)n(C)c(=O)n(C)c4c32)o1` (single isomer, unassigned) [Example 1.2, 1,3-Dimethyl-10-(5-methylfuran-2-yl)-5-phenyl-7,8-dihydro-1H-pyrimido[4′,5′:3,4]pyrrolo[2,1-c][1,4]thiazine-2,4(3H,10H)-dione] had an IC50 of 0.79 µM. The figure for `Cn1c(=O)c2c(-c3cccc(F)c3)n3c(c2n(C)c1=O)[C@H](c1nc(Cl)cs1)C[C@@H]3CO` [Example 27a, (7R,9R)-9-(4-chlorothiazol-2-yl)-5-(3-fluorophenyl)-7-(hydroxymethyl)-1,3-dimethyl-8,9-dihydro-1H-pyrimido[4,5-a]pyrrolizine-2,4(3H,7H)-dione] is 0.15 µM.

In turn, `Cc1nnc(-c2c3c(=O)n(C)c(=O)n(C)c3c3n2CCSC3c2ccc(Cl)o2)o1` (racemic) [Example 15.9, 10-(5-Chlorofuran-2-yl)-1,3-dimethyl-5-(5-methyl-1,3,4-oxadiazol-2-yl)-7,8-dihydro-1H-pyrimido[4′,5′:3,4]pyrrolo[2,1-c][1,4]thiazine-2,4(3H,10H)-dione] registered an IC50 of 1.9 µM. The figure for `Cn1c(=O)c2c(-c3cccc(C#N)c3)n3c(c2n(C)c1=O)[C@H](c1nc(Cl)cs1)CCC3` [Example 13a, (R)-3-(10-(4-chlorothiazol-2-yl)-1,3-dimethyl-2,4-dioxo-1,2,3,4,7,8,9,10-octahydropyrimido[4,5-a]indolizin-5-yl)benzonitrile] is 0.07 µM; for `Cn1c(=O)c2c(-c3ccccc3)n3c(c2n(C)c1=O)[C@H](c1ccc(Cl)o1)SCC3` [Example 1.1.1, (R)-10-(5-chlorofuran-2-yl)-1,3-dimethyl-5-phenyl-7,8-dihydro-1H-pyrimido[4′,5′:3,4]pyrrolo[2,1-c][1,4]thiazine-2,4(3H,10H)-dione] it is 0.63 µM; for `Cn1c(=O)c2c(-c3cccc(F)c3)n3c(c2n(C)c1=O)[C@H](c1ccc(Cl)o1)S[C@@H](CO)C3` (single isomer, unassigned) [Example 12.1b, 10-(5-chlorofuran-2-yl)-5-(3-fluorophenyl)-8-(hydroxymethyl)-1,3-dimethyl-7,8-dihydro-1H-pyrimido[4′,5′:3,4]pyrrolo[2,1-c][1,4]thiazine-2,4(3H,10H)-dione] it is 0.18 µM. The same measure for `Cc1nc(-c2c3c(=O)n(C)c(=O)n(C)c3c3n2CCC[C@H]3c2nc(Cl)cs2)cs1` (single isomer, unassigned) [Example 13.3a, 10-(4-chlorothiazol-2-yl)-1,3-dimethyl-5-(2-methylthiazol-4-yl)-7,8,9,10-tetrahydropyrimido[4,5-a]indolizine-2,4(1H,3H)-dione]: 0.09 µM. The figure for `Cn1cc(-c2c3c(=O)n(C)c(=O)n(C)c3c3n2CCSC3c2ccc(Cl)o2)cn1` (racemic) [Example 15.8, 10-(5-Chlorofuran-2-yl)-1,3-dimethyl-5-(1-methyl-1H-pyrazol-4-yl)-7,8-dihydro-1H-pyrimido[4′,5′:3,4]pyrrolo[2,1-c][1,4]thiazine-2,4(3H,10H)-dione] is 3.93 µM. In turn, `Cn1c(=O)c2c(C3=CCCCC3)n3c(c2n(C)c1=O)C(c1ccc(Cl)o1)SCC3` (single isomer, unassigned) [Example 3.1.2, 10-(5-chlorofuran-2-yl)-5-(cyclohex-1-en-1-yl)-1,3-dimethyl-7,8-dihydro-1H-pyrimido[4′,5′:3,4]pyrrolo[2,1-c][1,4]thiazine-2,4(3H,10H)-dione] had an IC50 of 1.51 µM. The figure for `Cc1ccc(C2SCCn3c(-c4ccccc4)c4c(=O)n(C)c(=O)n(C)c4c32)s1` (racemic) [Example 1.10, 1,3-Dimethyl-10-(5-methylthiophen-2-yl)-5-phenyl-7,8-dihydro-1H-pyrimido[4′,5′:3,4]pyrrolo[2,1-c][1,4]thiazine-2,4(3H,10H)-dione] is 8.08 µM. In the case of `Cc1coc(-c2c3c(=O)n(C)c(=O)n(C)c3c3n2CCSC3c2ccc(Cl)o2)n1` (racemic) [Example 15.10, 10-(5-Chlorofuran-2-yl)-1,3-dimethyl-5-(4-methyloxazol-2-yl)-7,8-dihydro-1H-pyrimido[4′,5′:3,4]pyrrolo[2,1-c][1,4]thiazine-2,4(3H,10H)-dione], it took 1.18 µM to reach half-maximal inhibition (IC50).

In turn, `Cc1ccc(C2SCCn3c(-c4ccccc4)c4c(=O)n(C)c(=O)n(C)c4c32)o1` (single isomer, unassigned) [Example 1.3, 1,3-Dimethyl-10-(5-methylfuran-2-yl)-5-phenyl-7,8-dihydro-1H-pyrimido[4′,5′:3,4]pyrrolo[2,1-c][1,4]thiazine-2,4(3H,10H)-dione] gave an IC50 greater than 30 µM.

Take `Cn1c(=O)c2c(-c3ccccc3)n3c(c2n(C)c1=O)C(c1ccc(Cl)o1)SC(CO)C3` (single isomer, unassigned) [Example 12.b, 10-(5-chlorofuran-2-yl)-8-(hydroxymethyl)-1,3-dimethyl-5-phenyl-7,8-dihydro-1H-pyrimido[4′,5′:3,4]pyrrolo[2,1-c][1,4]thiazine-2,4(3H,10H)-dione]: the IC50 turned out to be 0.54 µM. The figure for `Cc1ccc([C@@H]2CC[C@@H](Cn3nccn3)n3c(-c4ccccc4)c4c(=O)n(C)c(=O)n(C)c4c32)o1` (single isomer, unassigned) [Example 24] is 1.74 µM; for `Cc1csc(-c2c3c(=O)n(C)c(=O)n(C)c3c3n2C[C@H](CN)S[C@H]3c2ccc(Cl)o2)n1` (single isomer, unassigned) [Example 19, 8-(aminomethyl)-10-(5-chlorofuran-2-yl)-1,3-dimethyl-5-(4-methylthiazol-2-yl)-7,8-dihydro-1H-pyrimido[4′,5′:3,4]pyrrolo[2,1-c][1,4]thiazine-2,4(3H,10H)-dione] it is 5.38 µM; for `Cc1csc(-c2c3c(=O)n(C)c(=O)n(C)c3c3n2C[C@@H](Cn2ccnc2)S[C@@H]3c2ccc(Cl)o2)n1` (single isomer, unassigned) [Example 28a, 8-((1H-imidazol-1-yl)methyl)-10-(5-chlorofuran-2-yl)-1,3-dimethyl-5-(4-methylthiazol-2-yl)-7,8-dihydro-1H-pyrimido[4′,5′:3,4]pyrrolo[2,1-c][1,4]thiazine-2,4(3H,10H)-dione] it is 0.11 µM.

On to `CC(=O)NC[C@H]1Cn2c(-c3nc(C)cs3)c3c(=O)n(C)c(=O)n(C)c3c2[C@H](c2ccc(Cl)o2)S1` (single isomer, unassigned) [Example 26.3a, N-((10-(5-chlorofuran-2-yl)-1,3-dimethyl-5-(4-methylthiazol-2-yl)-2,4-dioxo-2,3,4,7,8,10-hexahydro-1H-pyrimido[4′,5′:3,4]pyrrolo[2,1-c][1,4]thiazin-8-yl)methyl)acetamide], for which 0.45 µM corresponded to half-maximal inhibition (IC50). As to `Cc1csc(-c2c3c(=O)n(C)c(=O)n(C)c3c3n2CCSC3c2ccc(Cl)o2)n1` (single isomer, unassigned) [Example 3.1.1, 10-(5-chlorofuran-2-yl)-1,3-dimethyl-5-(4-methylthiazol-2-yl)-7,8-dihydro-1H-pyrimido[4′,5′:3,4]pyrrolo[2,1-c][1,4]thiazine-2,4(3H,10H)-dione], the midpoint of inhibition, the IC50, lay at 0.41 µM. The figure for `Cn1ccc(-c2c3c(=O)n(C)c(=O)n(C)c3c3n2CCCC3c2nc(Cl)cs2)n1` (racemic) [Example 22, 10-(4-Chlorothiazol-2-yl)-1,3-dimethyl-5-(1-methyl-1H-pyrazol-3-yl)-7,8,9,10-tetrahydropyrimido[4,5-a]indolizine-2,4(1H,3H)-dione] is 0.47 µM; for `Cn1c(=O)c2c(-c3cccc(F)c3)n3c(c2n(C)c1=O)[C@H](c1nc(Cl)cs1)C[C@@H](CO)C3` (single isomer, unassigned) [Example 23a, 10-(4-chlorothiazol-2-yl)-5-(3-fluorophenyl)-8-(hydroxymethyl)-1,3-dimethyl-7,8,9,10-tetrahydropyrimido[4,5-a]indolizine-2,4(1H,3H)-dione] it is 0.05 µM; for `Cn1c(=O)c2c(-c3nc(C(=O)O)cs3)n3c(c2n(C)c1=O)C(c1ccc(Cl)o1)SCC3` (racemic) [Example 25, 2-(10-(5-Chlorofuran-2-yl)-1,3-dimethyl-2,4-dioxo-2,3,4,7,8,10-hexahydro-1H-pyrimido[4′,5′:3,4]pyrrolo[2,1-c][1,4]thiazin-5-yl)thiazole-4-carboxylic acid] it is 4.84 µM.
